From the supplement of paper PMC10307832

Key:
Test in all cases: relative viability (nuclei count vs DMSO), 5 days (fraction); higher = more cells survive
R406 + Phenformin = compound: COc1cc(Nc2ncc(F)c(Nc3ccc4c(n3)NC(=O)C(C)(C)O4)n2)cc(OC)c1OC [R406] + N=C(N)NC(=N)NCCc1ccccc1 [Phenformin] (partner 250 µM)
Method in brief: (§1)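 A single step with final 0.05% Triton X-100, 1% formaldehyde and 1 ug/ml Hoechst fixed the cells and stained nuclei 5 days after treatment. Lung cancer cell lines in 1536-well plates had been treated by pin tool the day after seeding with one drug alone or a fixed anchor-drug dose plus five library-drug doses (not always all listed) in √10 steps, and nuclei were counted on 4× images. Relative viability is the ratio of nuclei in treated wells to nuclei in vehicle wells, taken as the median of duplicate plates.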

Daporinad + Lapatinib = compound: O=C(/C=C/c1cccnc1)NCCCCC1CCN(C(=O)c2ccccc2)CC1 [Daporinad] + CS(=O)(=O)CCNCc1ccc(-c2ccc3ncnc(Nc4ccc(OCc5cccc(F)c5)c(Cl)c4)c3c2)o1 [Lapatinib] (partner 2 µM)
Method in brief: as §1

Daporinad + Bortezomib = compound: O=C(/C=C/c1cccnc1)NCCCCC1CCN(C(=O)c2ccccc2)CC1 [Daporinad] + CC(C)C[C@H](NC(=O)[C@H](Cc1ccccc1)NC(=O)c1cnccn1)B(O)O [Bortezomib] (partner 0.002 µM)
Method in brief: as §1

R406 + Tozasertib = compound: COc1cc(Nc2ncc(F)c(Nc3ccc4c(n3)NC(=O)C(C)(C)O4)n2)cc(OC)c1OC [R406] + Cc1cc(Nc2cc(N3CCN(C)CC3)nc(Sc3ccc(NC(=O)C4CC4)cc3)n2)n[nH]1 [Tozasertib] (partner 0.1 µM)
Method in brief: as §1

Cell Line | relative viability (R406 + Phenformin; first compound 0.08 µM) | relative viability (R406 + Phenformin; first compound 0.253 µM) | relative viability (R406 + Phenformin; first compound 0.8 µM) | relative viability (R406 + Phenformin; first compound 2.53 µM) | relative viability (R406 + Phenformin; first compound 8 µM) | relative viability (Daporinad + Lapatinib; first compound 0.0005 µM) | relative viability (Daporinad + Lapatinib; first compound 0.001581 µM) | relative viability (Daporinad + Lapatinib; first compound 0.005 µM) | relative viability (Daporinad + Lapatinib; first compound 0.01581 µM) | relative viability (Daporinad + Bortezomib; first compound 0.0005 µM) | relative viability (Daporinad + Bortezomib; first compound 0.001581 µM) | relative viability (Daporinad + Bortezomib; first compound 0.005 µM) | relative viability (Daporinad + Bortezomib; first compound 0.01581 µM) | relative viability (R406 + Tozasertib; first compound 0.08 µM) | relative viability (R406 + Tozasertib; first compound 0.253 µM) | relative viability (R406 + Tozasertib; first compound 0.8 µM) | relative viability (R406 + Tozasertib; first compound 2.53 µM) | relative viability (R406 + Tozasertib; first compound 8 µM)
NCI-H1355 | 0.474 | 0.472 | 0.472 | 0.197 | 0.28 | 0.956 | 1.09 | 0.995 | 0.873 | 1.16 | 1.2 | 1.35 | 1.07 | 0.572 | 0.575 | 0.558 | 0.572 | 0.258
NCI-H1437 | 0.301 | 0.31 | 0.251 | 0.29 | 0.201 | 0.704 | 0.879 | 0.867 | 0.85 | 0.414 | 0.629 | 0.561 | 0.554 | 0.403 | 0.433 | 0.409 | 0.417 | 0.416
NCI-H1650 | 0.438 | 0.497 | 0.508 | 0.154 | 0.146 | 0.792 | 0.922 | 0.95 | 0.875 | 0.182 | 0.222 | 0.219 | 0.187 | 0.394 | 0.449 | 0.461 | 0.164 | 0.185
NCI-H1651 | 0.455 | 0.377 | 0.465 | 0.252 | 0.134 | 0.803 | 1.09 | 0.796 | 0.984 | 0.953 | 0.952 | 1.01 | 0.788 | 0.719 | 0.865 | 0.641 | 0.592 | 0.496
NCI-H1666 | 0.542 | 0.576 | 0.59 | 0.616 | 0.476 | 0.612 | 0.633 | 0.739 | 0.752 | 0.846 | 0.93 | 0.9 | 0.742 | 0.584 | 0.725 | 0.582 | 0.633 | 0.418
NCI-H1734 | 0.374 | 0.483 | 0.407 | 0.257 | 0.202 | 1.05 | 1.08 | 0.986 | 0.65 | 0.937 | 0.967 | 0.888 | 0.333 | 0.294 | 0.272 | 0.262 | 0.26 | 0.206
NCI-H1755 | 0.602 | 0.651 | 0.621 | 0.374 | 0.429 | 1 | 1.03 | 1.06 | 1.07 | 0.928 | 0.969 | 0.935 | 0.971 | 0.463 | 0.529 | 0.605 | 0.504 | 0.331
NCI-H1915 | 0.359 | 0.388 | 0.404 |  | 0.278 | 0.983 | 1.03 | 1.03 | 0.969 | 0.987 | 1.05 | 0.961 | 0.883 | 0.459 | 0.474 | 0.521 |  | 0.463
NCI-H1975 | 0.386 | 0.463 | 0.421 | 0.224 | 0.127 | 1.03 | 1 | 0.917 | 0.826 | 0.397 | 0.395 | 0.332 | 0.402 | 0.75 | 0.918 | 0.785 | 0.189 | 0.109
